From ChEMBL document CHEMBL1275533, “In vitro antibacterial activity of vertilmicin and its susceptibility to modifications by the recombinant AAC6'-APH2'' enzyme” (2008)
≈ marks a conversion by molar mass, not a printed value. Calls of active or inactive are those of the source. The calls are words filed in the database; no cut-off is given here.

Assays:
Citrobacter freundii [1] = test: Antibacterial activity against non-gentamicin-resistant Citrobacter freundii clinical isolate assessed as susceptible isolates after 18 hrs by agar dilution method; format: functional
Escherichia coli [2] = test: Antibacterial activity against gentamicin-resistant Escherichia coli clinical isolate after 18 hrs by agar dilution method; format: functional
[3] = test system: Staphylococcus epidermidis; test: Antibacterial activity against non-gentamicin-resistant Staphylococcus epidermidis clinical isolate assessed as susceptible isolates after 18 hrs by agar dilution method; format: functional
Citrobacter freundii [4] = test: Antibacterial activity against gentamicin-resistant Citrobacter freundii clinical isolate assessed as susceptible isolates after 18 hrs by agar dilution method; format: functional
Providencia rettgeri [5] = test: Antibacterial activity against gentamicin-resistant Proteus rettgeri clinical isolate after 18 hrs by agar dilution method; format: functional
[6] = test system: Acinetobacter calcoaceticus; test: Antibacterial activity against gentamicin-resistant Acinetobacter calcoaceticus clinical isolate after 18 hrs by agar dilution method; format: functional
[7] = test system: Staphylococcus epidermidis; test: Antibacterial activity against gentamicin-resistant Staphylococcus epidermidis clinical isolate after 18 hrs by agar dilution method; format: functional
Providencia rettgeri [8] = test: Antibacterial activity against non-gentamicin-resistant Proteus rettgeri clinical isolate assessed as susceptible isolates after 18 hrs by agar dilution method; format: functional
Staphylococcus aureus [9] = test: Antibacterial activity against non-gentamicin-resistant Staphylococcus aureus clinical isolate assessed as susceptible isolates after 18 hrs by agar dilution method; format: functional
Citrobacter freundii [10] = test: Antibacterial activity against non-gentamicin-resistant Citrobacter freundii clinical isolate after 18 hrs by agar dilution method; format: functional
Citrobacter koseri [11] = test: Antibacterial activity against gentamicin-resistant Citrobacter diversus clinical isolate after 18 hrs by agar dilution method; format: functional
[12] = test system: Escherichia coli BL21(DE3); test: Phosphorylation activity of AAC(6')-APH(2'') in Escherichia coli BL21(DE3) assessed as oxidation of NADH by pyruvate kinase
Enterococcus faecalis = test: Antibacterial activity against gentamicin-resistant Enterococcus faecalis clinical isolate assessed as susceptible isolates after 18 hrs by agar dilution method; format: functional, organism-based
Pseudomonas sp. [13] = test: Antibacterial activity against non-gentamicin-resistant Pseudomonas spp. clinical isolate assessed as susceptible isolates after 18 hrs by agar dilution method; format: functional
Staphylococcus aureus [14] = test: Antibacterial activity against gentamicin-resistant Staphylococcus aureus clinical isolate assessed as susceptible isolates after 18 hrs by agar dilution method; format: functional
[15] = test system: Acinetobacter calcoaceticus; test: Antibacterial activity against non-gentamicin-resistant Acinetobacter calcoaceticus clinical isolate assessed as susceptible isolates after 18 hrs by agar dilution method; format: functional
Proteus mirabilis [16] = test: Antibacterial activity against non-gentamicin-resistant Proteus mirabilis clinical isolate after 18 hrs by agar dilution method; format: functional
Klebsiella pneumoniae [17] = test: Antibacterial activity against non-gentamicin-resistant Klebsiella pneumoniae clinical isolate assessed as susceptible isolates after 18 hrs by agar dilution method; format: functional
Serratia marcescens [18] = test: Antibacterial activity against non-gentamicin-resistant Serratia marcescens clinical isolate assessed as susceptible isolates after 18 hrs by agar dilution method; format: functional
[19] = test system: Staphylococcus epidermidis; test: Antibacterial activity against non-gentamicin-resistant Staphylococcus epidermidis clinical isolate after 18 hrs by agar dilution method; format: functional
[20] = test system: Haemophilus parainfluenzae; test: Antibacterial activity against non-gentamicin-resistant Haemophilus parainfluenzae clinical isolate after 18 hrs by agar dilution method; format: functional
Pseudomonas aeruginosa = test: Antibacterial activity against gentamicin-resistant Pseudomonas aeruginosa clinical isolate assessed as susceptible isolates after 18 hrs by agar dilution method; format: functional
Enterobacter cloacae = test: Antibacterial activity against gentamicin-resistant Enterobacter cloacae clinical isolate after 18 hrs by agar dilution method; format: functional
Klebsiella aerogenes [21] = test: Antibacterial activity against gentamicin-resistant Enterobacter aerogenes clinical isolate after 18 hrs by agar dilution method; format: functional
[22] = test system: Staphylococcus epidermidis; test: Antibacterial activity against gentamicin-resistant Staphylococcus epidermidis clinical isolate assessed as susceptible isolates after 18 hrs by agar dilution method; format: functional
Citrobacter koseri [23] = test: Antibacterial activity against non-gentamicin-resistant Citrobacter diversus clinical isolate after 18 hrs by agar dilution method; format: functional
Escherichia coli [24] = test: Antibacterial activity against non-gentamicin-resistant Escherichia coli clinical isolate after 18 hrs by agar dilution method; format: functional
Morganella morganii [25] = test: Antibacterial activity against non-gentamicin-resistant Morganella morganii clinical isolate after 18 hrs by agar dilution method; format: functional
Proteus mirabilis [26] = test: Antibacterial activity against gentamicin-resistant Proteus mirabilis clinical isolate after 18 hrs by agar dilution method; format: functional
Morganella morganii [27] = test: Antibacterial activity against gentamicin-resistant Morganella morganii clinical isolate assessed as susceptible isolates after 18 hrs by agar dilution method; format: functional
Serratia marcescens [28] = test: Antibacterial activity against non-gentamicin-resistant Serratia marcescens clinical isolate after 18 hrs by agar dilution method; format: functional
Citrobacter freundii [29] = test: Antibacterial activity against gentamicin-resistant Citrobacter freundii clinical isolate after 18 hrs by agar dilution method; format: functional
Morganella morganii [30] = test: Antibacterial activity against gentamicin-resistant Morganella morganii clinical isolate after 18 hrs by agar dilution method; format: functional
Klebsiella pneumoniae [31] = test: Antibacterial activity against gentamicin-resistant Klebsiella pneumoniae clinical isolate assessed as susceptible isolates after 18 hrs by agar dilution method; format: functional
Pseudomonas sp. [32] = test: Antibacterial activity against gentamicin-resistant Pseudomonas spp. clinical isolate assessed as susceptible isolates after 18 hrs by agar dilution method; format: functional
Citrobacter koseri [33] = test: Antibacterial activity against non-gentamicin-resistant Citrobacter diversus clinical isolate assessed as susceptible isolates after 18 hrs by agar dilution method; format: functional
Providencia rettgeri [34] = test: Antibacterial activity against gentamicin-resistant Proteus rettgeri clinical isolate assessed as susceptible isolates after 18 hrs by agar dilution method; format: functional
[35] = test system: Acinetobacter calcoaceticus; test: Antibacterial activity against gentamicin-resistant Acinetobacter calcoaceticus clinical isolate assessed as susceptible isolates after 18 hrs by agar dilution method; format: functional
Escherichia coli [36] = test: Antibacterial activity against gentamicin-resistant Escherichia coli clinical isolate assessed as susceptible isolates after 18 hrs by agar dilution method; format: functional
Staphylococcus aureus [37] = test: Antibacterial activity against gentamicin-resistant Staphylococcus aureus clinical isolate after 18 hrs by agar dilution method; format: functional
[38] = test system: Haemophilus parainfluenzae; test: Antibacterial activity against non-gentamicin-resistant Haemophilus parainfluenzae clinical isolate assessed as susceptible isolates after 18 hrs by agar dilution method; format: functional, organism-based
Pseudomonas sp. [39] = test: Antibacterial activity against gentamicin-resistant Pseudomonas spp. clinical isolate after 18 hrs by agar dilution method; format: functional
Proteus mirabilis [40] = test: Antibacterial activity against gentamicin-resistant Proteus mirabilis clinical isolate assessed as susceptible isolates after 18 hrs by agar dilution method; format: functional
Escherichia coli [41] = test: Antibacterial activity against non-gentamicin-resistant Escherichia coli clinical isolate assessed as susceptible isolates after 18 hrs by agar dilution method; format: functional
Klebsiella aerogenes [42] = test: Antibacterial activity against gentamicin-resistant Enterobacter aerogenes clinical isolate assessed as susceptible isolates after 18 hrs by agar dilution method; format: functional
Serratia marcescens [43] = test: Antibacterial activity against gentamicin-resistant Serratia marcescens clinical isolate assessed as susceptible isolates after 18 hrs by agar dilution method; format: functional
Serratia marcescens [44] = test: Antibacterial activity against gentamicin-resistant Serratia marcescens clinical isolate after 18 hrs by agar dilution method; format: functional

## CCN[C@@H]1C[C@H](N)[C@@H](O[C@@H]2OC(C(C)N)=CC[C@@H]2N)[C@H](O)[C@H]1O[C@H]1OC[C@](C)(O)[C@H](NC)[C@H]1O (stereo not given in full) [VERTILMICIN]
Citrobacter freundii [1]
  Activity: 90%
Escherichia coli [2]
  MIC50: 8 µg/mL (≈ 16.3 µM)
  MIC90: 64 µg/mL (≈ 131 µM)
[3]
  Activity: 100%
Citrobacter freundii [4]
  Activity: 52.6%
Providencia rettgeri [5]
  MIC50: 8 µg/mL (≈ 16.3 µM)
  MIC90: 64 µg/mL (≈ 131 µM)
[6]
  MIC50: 128 µg/mL (≈ 261 µM)
  MIC90: > 128 µg/mL
[7]
  MIC50: 2 µg/mL (≈ 4.08 µM)
  MIC90: 16 µg/mL (≈ 32.7 µM)
Providencia rettgeri [8]
  Activity: 92.3%
Staphylococcus aureus [9]
  Activity: 94.8%
Citrobacter freundii [10]
  MIC50: 0.5 µg/mL (≈ 1.02 µM)
  MIC90: 8 µg/mL (≈ 16.3 µM)
Citrobacter koseri [11]
  MIC50: 32 µg/mL (≈ 65.4 µM)
  MIC90: > 128 µg/mL
[12]
  Km: 104 µM
Enterococcus faecalis
  Activity: inactive
Pseudomonas sp. [13]
  Activity: 72.7%
Staphylococcus aureus [14]
  Activity: 83.3%
[15]
  Activity: 93.8%
Proteus mirabilis [16]
  MIC50: 1 µg/mL (≈ 2.04 µM)
  MIC90: 2 µg/mL (≈ 4.08 µM)
Klebsiella pneumoniae [17]
  Activity: 97.6%
Serratia marcescens [18]
  Activity: 100%
[19]
  MIC50: 0.125 µg/mL (≈ 0.255 µM)
  MIC90: 1 µg/mL (≈ 2.04 µM)
[20]
  MIC50: 1 µg/mL (≈ 2.04 µM)
  MIC90: 2 µg/mL (≈ 4.08 µM)
Pseudomonas aeruginosa
  Activity: 17.6%
Enterobacter cloacae
  MIC50: 32 µg/mL (≈ 65.4 µM)
  MIC90: > 128 µg/mL
Klebsiella aerogenes [21]
  MIC50: 16 µg/mL (≈ 32.7 µM)
  MIC90: > 128 µg/mL
[22]
  Activity: 88.5%
Citrobacter koseri [23]
  MIC: 0.25 µg/mL (≈ 0.511 µM)
  MIC50: 0.25 µg/mL (≈ 0.511 µM)
  MIC90: 0.5 µg/mL (≈ 1.02 µM)
Escherichia coli [24]
  MIC50: 0.5 µg/mL (≈ 1.02 µM)
  MIC90: 0.5 µg/mL (≈ 1.02 µM)
Morganella morganii [25]
  MIC50: 1 µg/mL (≈ 2.04 µM)
  MIC90: 2 µg/mL (≈ 4.08 µM)
Proteus mirabilis [26]
  MIC50: 32 µg/mL (≈ 65.4 µM)
  MIC90: > 128 µg/mL
Morganella morganii [27]
  Activity: 50%
Serratia marcescens [28]
  MIC: 0.25 µg/mL (≈ 0.511 µM)
  MIC50: 0.25 µg/mL (≈ 0.511 µM)
  MIC90: 1 µg/mL (≈ 2.04 µM)
Citrobacter freundii [29]
  MIC50: 8 µg/mL (≈ 16.3 µM)
  MIC90: 32 µg/mL (≈ 65.4 µM)
Morganella morganii [30]
  MIC50: 8 µg/mL (≈ 16.3 µM)
  MIC90: 32 µg/mL (≈ 65.4 µM)
Klebsiella pneumoniae [31]
  Activity: 32.1%
Pseudomonas sp. [32]
  Activity: 7.7%
Citrobacter koseri [33]
  Activity: 100%
Providencia rettgeri [34]
  Activity: 53.3%
[35]
  Activity: 24%
Escherichia coli [36]
  Activity: 68.4%
Staphylococcus aureus [37]
  MIC50: 4 µg/mL (≈ 8.17 µM)
  MIC90: 16 µg/mL (≈ 32.7 µM)
[38]
  Activity: inactive
Pseudomonas sp. [39]
  MIC50: 128 µg/mL (≈ 261 µM)
  MIC90: > 128 µg/mL
Proteus mirabilis [40]
  Activity: 36.4%
Escherichia coli [41]
  Activity: 100%
Klebsiella aerogenes [42]
  Activity: 30%
Serratia marcescens [43]
  Activity: 10%
Serratia marcescens [44]
  MIC50: > 128 µg/mL
  MIC90: > 128 µg/mL
